The subject of data set [1] is normal human amniotic WISH cells. In words: MTT cell viability, normal WISH cells. It counts as cell-based. The settings on record: 48 h, mean ± SE, read-out: IC50, normal cell line (WISH). How it is done: (§1) 3-(4,5-dimethylthiazol-2-yl)-2,5-diphenyltetrazolium bromide (MTT) assay was used to measure cell viability according to a prior study. The cells were grown in 96-well plates at a density of 1 × 10^4 cells/well, treated for 48 h with varied 5a (0–200 µM) or the reference drug DOX (0–100 µM) dosages, and then exposed to analysis. The culture medium was taken out after 48 h of incubation, and the cells were given two gentle washes with 1× ice-cold phosphate-buffered saline (PBS). The MTT (10×) has been diluted to a 1× solution in the culture medium (1 volume 10× MTT in 9 volumes medium) and 200 μl was added to each well. The microplate has been kept in a cell culture incubator at 37 °C for 4 h. Afterthat, 180 μl of the MTT solution was taken out and 100 μl of DMSO was put to each well. The microplate was incubated for 15 min with shaking at room temperature. The absorbance of each well was ultimately measured at 630 nm using a Model 680 microplate reader (Bio-Rad, CA, USA)[33].

The test system of data set [2] is MCF-7 breast cancer cells. In words: MTT cell viability, MCF-7. Format: cell-based. As to conditions: Homo sapiens, MCF7, 48 h, mean ± SE. How it is done:
as §1

For the next data set, the system named is p53. The data set is described as follows: Immunoblotting of p53 in MCF-7. The settings on record: MCF-7, IC50 dose, 48 h, immunoblot, vs untreated cells. It counts as cell-based, human. The procedure:
(§2) Western blot analysis was conducted according to[37]. The ReadyPrepTM protein extraction kit (total protein) provided by Bio-Rad Inc (Cat #163-2086) was used to isolate proteins according to the manufacturer’s instructions. The Bradford protein assay kit (SK3041) from Bio Basic Inc. (Markham Ontario L3R 8T4 Canada) was then used to perform quantitative protein analysis. Afterward, a 20 μg protein concentration of each sample was subjected to 12% sodium dodecyl sulfate–polyacrylamide gel electrophoresis (SDS-PAGE), followed by transfer to polyvinylidene fluoride (PVDF) membranes (BioRad). Polyacrylamide gels were performed using the TGX Stain-Free™ FastCast™ Acrylamide Kit (SDS-PAGE) provided by Bio-Rad Laboratories Inc. (Cat # 161-0181). The SDS-PAGE TGX Stain-Free FastCast was prepared according to the manufacturer's instructions. The membrane was blocked in tris-buffered saline with Tween 20 (TBST) buffer and 3% bovine serum albumin (BSA) for 1 h at room temperature followed by probing with primary antibodies against phospho-RAS-GRF1 (Ser916) (1: 1000, Cell Signaling Technology, #3321), phospho-SAPK/JNK (Thr183/Tyr185) (1:1000, Cell Signaling Technology, #9251), p53 (1:1000, Cell Signaling Technology, #9282) and β-actin (1:3000, Cell Signaling Technology, #8457). […]
A general note: Immunoblotting shows a protein as a band on a membrane.

Data set [3] concerns phospho-SAPK/JNK (Thr183/Tyr185). The data set is described as follows: Immunoblotting of p-JNK in MCF-7. Format: cell-based, human. As to conditions: MCF-7, IC50 dose, 48 h, western blot, vs untreated cells. The procedure: as §2
The test system of data set [4] is MDA-MB-231 breast cancer cells. In words: MTT cell viability, MDA-MB-231. It counts as cell-based. The settings on record: Homo sapiens, 48 h, mean ± SE. The procedure: as §1
The next data set concerns PI3K. The data set is described as follows: RT-PCR analysis of PI3K gene expression in MCF-7. Format: cell-based, human. As to conditions: MCF-7, IC50 dose, 48 h, vs untreated cells. The procedure: (§3) The total RNA was isolated from the MCF-7 cells using Trizol (Cat# R2072, ZYMO […] CORP. USA) according to the manufacturer’s instructions. Its quantity and quality were assessed using a Beckman dual spectrophotometer. The cDNA was performed using a miScript Reverse Transcription Kit (QIAGEN) Kit (218061) and a miScript SYBR Green PCR Kit was used for mRNA detection with quantification (218073). Reverse transcription was running on a StepOne system (Applied Biosystems, Foster City, CA, USA) in a total volume of 10 μL containing 5 μL of the miScript RT enzyme and […]. Real-time PCR for mRNA was performed on the same system in a total volume of 20 μL containing 10 μL of a 2× QuantiTect® SYBR Green PCR Master Mix and 10 ng of the cDNA template. The PCR thermal cycling conditions for the mRNA were 2 min at 50 °C, 30 s at 95 °C, 40 cycles of 95 °C for 5 s, and 60 °C for 34 s. The expression of the mRNA target genes was normalized to the expression of human GAPDH quantified using the 2^−ΔΔCt method. Table 1 contains a list of the primers used in the research.

For data set [5], the system named is MCF-7 cells. In words: Cell cycle analysis by flow cytometry (PI). It counts as cell-based, human. As to conditions: MCF-7, IC50 dose, 48 h; untreated control 8.6%. The procedure:
Using flow cytometry, cell cycle analysis was carried out via a documented method of[35] with a few changes. After trypsinization, the MCF-7 cells were centrifuged at 4500 rpm for 5 min, followed by two washings, resuspension in 1× PBS, fixation with ice-cold absolute ethanol, and incubation at 20 °C for 24 h. Following two PBS washes, the cells were then resuspended in (0.05 mg/mL) propidium iodide (PI)[32] solution containing 50 µL (0.2 mg/mL) of RNase A, and 0.1% v/v Triton X-100 in PBS. Then, the cells were incubated at room temperature for 30–60 min in the dark. Finally, the pellet was washed with 1⤫ PBS and resuspended in 300 µL 1× PBS, and subjected to analysis on Accuri C6 flow cytometer (Becton Dickinson, Franklin Lake, BD, USA) equipped with PE X FL2 channels.
(In general: In flow cytometry, cells or beads pass a laser one at a time.)

The subject of data set [6] is MCF-7 cells. The data set is described as follows: Cell morphology by inverted light microscope. It counts as cell-based, human. As to conditions: IC50 dose, 48 h. The procedure: Using an inverted light microscope (Olympus, USA), the morphological alterations of the treated and untreated cells were evaluated and documented after 48 h of incubation.
The test system of data set [7] is PANC-1 pancreatic cancer cells. In words: MTT cell viability, PANC-1. Format: cell-based. The settings on record: Homo sapiens, 48 h, mean ± SE. How it is done: as §1
The subject of data set [8] is phospho-RAS-GRF1 (Ser916). The data set is described as follows: Immunoblotting of p-RAS in MCF-7. The settings on record: MCF-7, IC50 dose, 48 h, western blot, vs untreated cells. It counts as cell-based, human. The procedure:
as §2

The subject of the next data set is p21. In words: RT-PCR analysis of p21 gene expression in MCF-7. Format: cell-based, human. The settings on record: MCF-7, IC50 dose, 48 h, vs untreated cells. The procedure: as §3
In data set [9] the test system is Caco-2 colorectal cancer cells. The data set is described as follows: MTT cell viability, Caco-2. Format: cell-based. As to conditions: Homo sapiens, 48 h, mean ± SE. How it is done:
as §1

In the next data set the test system is Akt. The data set is described as follows: RT-PCR analysis of Akt gene expression in MCF-7. It counts as cell-based, human. The settings on record: MCF-7, IC50 dose, 48 h, vs untreated cells. The procedure:
as §3

Entries after “also recorded” stand apart in the source; their conditions may differ.

By melting point is commonly meant the temperature of the solid-liquid transition. Compound `COc1cc(/C=C/C(=O)C2=C(C)NC(=S)NC2c2cccs2)ccc1O` (stereo not shown) [2b, [E]-3-(4-hydroxy-3-methoxyphenyl)-1-(6-methyl-4-(thiophen-2-yl)-2-thioxo-1,2,3,4-tetrahydropyrimidin-5-yl)prop-2-en-1-one] returned a melting point of 258 °C.
As usually defined, the IC50 is the concentration that inhibits the measured activity by half. On to `COc1cccc2c1C(=O)c1c(O)c3c(c(O)c1C2=O)C[C@@](O)(C(=O)CO)C[C@@H]3O[C@H]1C[C@H](N)[C@H](O)[C@H](C)O1` [DOX, Doxorubicin, reference compound], for which the IC50 was 24.5 ± 2.1 µM in data set [1] and 2.26 ± 1.4 µM in data set [2].
As to `COc1cc(C2CC(C3=C(C)NC(=S)NC3c3ccc(N(C)C)cc3)=NN2c2ccccc2)ccc1O` (stereo not shown) [compound 5a, 4-(4-(dimethylamino)phenyl)-5-(5-(4-hydroxy-3-methoxyphenyl)-1-phenyl-4,5-dihydro-1H-pyrazol-3-yl)-6-methyl-3,4-dihydropyrimidine-2(1H)-thione], the p53 protein expression entry in the data set on p53 is “significant elevation”. Moreover, in data set [3], the p-JNK protein expression entry was “significant reduction”. Also, the IC50 in [4] was found to be 6.78 ± 2.2 µM; in data set [7] it was 23.6 ± 2.4 µM; in data set [1], 180 ± 2.7 µM; in [9] it was 14.8 ± 2.5 µM; in [2] it was 2.62 ± 1.6 µM. For the same compound, the “mRNA transcript level of PI3K” value in the data set on PI3K is on record as “significantly reduced; also recorded: downregulated”. For the same compound, the “Percentage of cells at sub-G0/G1” value in the data set with MCF-7 cells [5] is on record as 48.5%. Moreover, the “Morphological features of MCF-7 cells” value in the data set on MCF-7 cells [6] is reported as “detectable morphological signs of apoptosis”. In addition, in [8], the “levels of p-RAS proteins” value is given as “significantly decreased”. Further, the p21 gene expression result in the data set on p21 was “significantly upregulated”. In the data set with Akt, the “mRNA transcript level of Akt” value is recorded as “significantly reduced; also recorded: downregulated”.

(Values after article PMC9780203, “Synthesis, molecular docking, and in-vitro studies of pyrimidine-2-thione derivatives as antineoplastic agents via potential RAS/PI3K/Akt/JNK inhibition in breast carcinoma cells” (Scientific Reports, 2022).)
